Measured values from patent US12365650B2, “Deuterated organic compounds and uses thereof” (ENGRAIL THERAPEUTICS, INC., priority 2023, dated 2025).
Marks after values point to notes of the source that are not given here.

Legend:
5-HT2A receptor [1] = biological target: T1, 5-HT2A receptor (Homo sapiens, UniProt P28223); assay: IP-One HTRF functional assay, 5-HT2A agonist mode; assay type: cell-based; design: expressed in transfected cells; conditions: % of reference agonist activity at its EC100
Method: (§1) Example 4—Agonist or Antagonist Activity on Recombinant Human Dopamine and Serotonin Receptors Using IPOne HTRF and cAMP HTRF Assays
(§2) IP-One and cAMP HTRF assays are conducted with recombinant cell lines.
(§3) Agonist activity of test compounds is expressed as a percentage of the activity of the reference agonist at its EC100 concentration. Antagonist activity of the test compound is expressed as a percentage of the inhibition of reference agonist activity at its EC80 concentration.

human 5-HT1A receptor = biological target: T2, human 5-HT1A receptor (Homo sapiens, UniProt P08908); assay: cAMP HTRF functional assay, 5-HT1A agonist mode; assay type: cell-based; conditions: for 5-HT1A functional character: agonist mode, summary of Tables 4-5; for Top % Activation at maximal concentration, 5-HT1A (agonist mode): cAMP, % of reference agonist activity at its EC100
T2 sequence (P08908 1-422): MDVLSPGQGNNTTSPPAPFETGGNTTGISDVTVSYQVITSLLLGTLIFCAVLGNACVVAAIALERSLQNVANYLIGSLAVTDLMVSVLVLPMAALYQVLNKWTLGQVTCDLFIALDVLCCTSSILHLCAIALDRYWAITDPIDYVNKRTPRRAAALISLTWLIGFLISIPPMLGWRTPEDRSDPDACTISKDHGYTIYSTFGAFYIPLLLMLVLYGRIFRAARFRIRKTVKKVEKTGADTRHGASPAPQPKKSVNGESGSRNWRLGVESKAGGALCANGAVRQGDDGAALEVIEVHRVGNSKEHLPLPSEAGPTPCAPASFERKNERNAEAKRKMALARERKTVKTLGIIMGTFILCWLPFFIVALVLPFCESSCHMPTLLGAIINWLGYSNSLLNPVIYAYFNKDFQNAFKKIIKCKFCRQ
Method: as §1, §2, §3

5-HT2A receptor [2] = biological target: T1, 5-HT2A receptor; assay type: binding

T1 sequence (P28223 whole entry): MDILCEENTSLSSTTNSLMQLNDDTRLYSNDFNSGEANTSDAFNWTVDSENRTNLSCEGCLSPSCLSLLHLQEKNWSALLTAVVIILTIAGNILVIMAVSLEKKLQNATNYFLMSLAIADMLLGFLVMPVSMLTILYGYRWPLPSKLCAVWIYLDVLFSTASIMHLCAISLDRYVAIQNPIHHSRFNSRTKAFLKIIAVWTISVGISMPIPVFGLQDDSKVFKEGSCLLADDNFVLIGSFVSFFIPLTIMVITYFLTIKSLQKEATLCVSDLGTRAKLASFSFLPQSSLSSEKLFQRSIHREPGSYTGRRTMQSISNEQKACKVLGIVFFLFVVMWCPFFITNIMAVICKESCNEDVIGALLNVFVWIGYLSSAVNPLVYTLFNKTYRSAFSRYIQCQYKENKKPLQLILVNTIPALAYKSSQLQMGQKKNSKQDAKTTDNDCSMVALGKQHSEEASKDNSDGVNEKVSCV

Structure (SMILES)	Top % Activation at maximal concentration, 5-HT2A (agonist mode) (5-HT2A receptor [1])	5-HT1A functional character (human 5-HT1A receptor)	Top % Activation at maximal concentration, 5-HT1A (agonist mode) (human 5-HT1A receptor)	binding to the 5-HT2A receptor in vitro (5-HT2A receptor [2])
[2H]C([2H])([2H])Oc1cc(NC)c(Cl)cc1C(=O)N[C@@H]1CCN(Cc2ccccc2)[C@@H]1C [Ex. 2 (18), 5-Chloro-N-((2R,3R)-1-((phenyl)methyl)-2-methylpyrrolidin-3-yl)-2-trideuteromethoxy-4-(methylamino)benzamide]	94%	5-HT1A partial agonist	59%	
CCN1CCC[C@H]1CNC(=O)c1c(OC)ccc(Br)c1OC [S-remoxipride]				do not even bind
CCN1CCC[C@@H]1CNC(=O)c1c(OC)ccc(Br)c1OC [R-remoxipride]				do not even bind
[2H]c1c([2H])c([2H])c(CN2CC[C@@H](NC(=O)c3cc(Cl)c(NC)cc3OC)[C@H]2C)c([2H])c1[2H] [Ex. 1 (10), 5-Chloro-N-((2R,3R)-1-((pentadeuterophenyl)methyl)-2-methylpyrrolidin-3-yl)-2-methoxy-4-(methylamino)benzamide]	84^d %	strong 5-HT1A agonist	71^d %	
